These results are taken from article PMC9605737, “Identification of 6ω-cyclohexyl-2-(phenylamino carbonylmethylthio)pyrimidin-4(3H)-ones targeting the ZIKV NS5 RNA dependent RNA polymerase” (Frontiers in Chemistry, 2022).

Data set [1] is described as follows: MTT cytotoxicity assay in Huh7 cells. To be noted: human. Type of data set: cell-based. The protocol:
MTT assay was used to detect the toxicity of the compound. Cells were seeded in 96-well plates and cultured overnight. Compounds with different concentrations were added and incubated for 96 h. Then, 20 μl of 5 mg/ml MTT (Sigma-Aldrich, United States) solution was added to each well and kept at 37°C for 4 h. Subsequently, 100 μl of 12% SDS-50% DMF (Sigma-Aldrich, United States) solution was added and incubated overnight at 37°C. After the crystalline formamidine was completely dissolved, the optical density (OD) value was measured using a microplate reader (BioTek, United States) with a wavelength of 570 nm and a reference wavelength of 630 nm.
The 50% effective concentration (EC50) and 50% cytotoxic concentration (CC50) of the compound were calculated according to the Reed and Muench method, inhibition rate of ZIKV RNA yield- [(1-drug treatment/positive control) × 100]. The data and graphs were processed using GraphPad Prism8 software, expressed as mean ± standard deviation (Mean ± SD), comparison between groups using ANOVA, p < 0.05 was considered statistically significant.
Background: Tetrazolium dyes change colour on reduction, which living cells bring about.

A further data set relates to ZIKV RNA. The data set can be described thus: qRT-PCR viral load in supernatant of ZIKV-infected Huh7 cells. The format is cell-based. To be noted: Zika virus, Huh-7, read-out: EC50, inhibition of ZIKV RNA replication. An excerpt:
In order to re-verify the inhibitory effect of 4w on ZIKV at the molecular level, we used ZIKV to infect cell lines of different origins (A549, Vero, Huh7 cells) and then treated with 4w in a concentration gradient. The change of viral load in the supernatant of cells after treatment was detected by qRT-PCR method.
Cells were infected with ZIKV SZ-WIV01 and then treated with 4w. The viral load in the supernatant was detected by Quantitative real-time polymerase chain reaction (qRT-PCR) at in different time periods after infection. Then the RNA from culture supernatant was extracted using the EasyPure ® Viral DNA/RNA Kit (TransGen Biotech, China) following the manufacturer’s instructions. Intracellular RNA extraction was according to trizol method. A one-step qRT-PCR kit RNA-direct™ Realtime PCR Master Mix (TOYOBO, Japan) and TaqMan probe were used to quantify the viral RNA produced. The primers (NS5 ZIKV 1086F: 5′-CCGCTGCCCAACACAAG-3′ and NS5 ZIKV 1086R: 3′-[…] C-5′) and probe (5′-FAM-[…]-TAMRA -3′) were used for amplification of the ZIKV NS5 region. A standard curve of the serial dilutions was used to quantify the viral RNA yield.
The 50% effective concentration (EC50) and 50% cytotoxic concentration (CC50) of the compound were calculated according to the Reed and Muench method, inhibition rate of ZIKV RNA yield- [(1-drug treatment/positive control) × 100]. […]
(In general: Quantitative PCR measures a nucleic acid by following its amplification.)

In another data set the test system is ZIKV E protein. The data set is described as follows: Immunofluorescence assay of ZIKV E protein in infected Vero cells. The settings on record: 25 μM, 72 h. The format is cell-based, Zika virus. The source says:
ZIKV E protein is one of the most important structural proteins of ZIKV, which plays an important role in the correct assembly of the virus and evasion of the host’s innate immunity ([Jaimipuk et al., 2022]). We have verified that 4w has a significant inhibitory effect on ZIKV-infected cell lines from different sources at the molecular level, but it is unknown whether it has the same antiviral effect at the protein level. Therefore, in order to explore the inhibitory effect of 4w on ZIKV protein level, we added serially diluted 4w to ZIKV-infected Vero cells for 48 h, collected the total protein for WB experiments, and then detected the effect of 4w on ZIKV E and NS5 protein. At the same time, the inhibitory effect of 4w on ZIKV E protein was verified again by immunofluorescence experiment.
Vero cells were seeded at 2 × 10^5 cells/ml in a 24-well plate with cell slides, and 500 μl/well was cultured overnight in a 37°C, 5% CO2 incubator. ZIKV (MOI = 1) was added to infect at 37°C for 2 h, and then discarded the virus. The cells were washed twice with PBS and then added to 500 μl of 4w diluted in concentration gradients. At the same time, virus-only as a positive control and a medium-only as negative control were set. […] Microscopic examinations were performed on a Leica DMI4000B Microsystem (Wetzlar, Germany), and an image was recorded using the system.

Another data set deals with ZIKV. The data set is described as follows: Four different methods of drug treatment (virus, co-, pre-, post-treatment). Type of data set: cell-based, Zika virus. The settings on record: viral load. An excerpt: ZIKV RdRp was a important domain in the C-terminal of ZIKV NS5, and plays a crucial role in the replication and synthesis of RNA in the life cycle of ZIKV. In order to further verify that 4w activity is related to RdRp domain inhibition, we examined the effect of 4w on the replication cycle of ZIKV using four different drug treatments and time-sharing withdrawal experiments (Figure 7A).
As mentioned above ([Duan et al., 2019]; [Zou et al., 2020]), according to the different life cycles of the ZIKV, four different drug treatment methods are set: virus treatment, co-treatment, pre-treatment, post-treatment. For virus treatment, the ZIKV and 4w were pre-treated in a 4°C refrigerator for 1 h, then the treated virus was added to the cells for 2 h of infection, and the virus was discarded, washed twice with PBS, and added to maintenance medium (containing 2% FBS DMEM high sugar medium), continue to culture at 37°C, 5% CO2 incubator for 3 days, collect the cell supernatant for RT-PCR and plaque experiments. For co-treatment: add 4w and ZIKV to the cells at the same time, incubate at 37°C, 5% CO2 for 2 h, then remove the virus and compounds, add maintenance medium for 3 days. Pre-treatment: Compound 4w and cells were treated at 4°C for 1 h, then 4w was removed, ZIKV was added for 2 h, remove virus and the maintenance medium was added to continue culturing for 3 days. […]

For data set [2] the following is noted: Figure 3; ref Shen (2015); cited from earlier work.

`CCc1c(C2CCCCC2)nc(SCC(=O)Nc2cc(F)cc(F)c2)[nH]c1=O` [Compound 4w, 2-{[4-cyclohexyl-5-ethyl-6-oxo-1,6-dihydropyrimidin-2-yl]thio}-N-(3,5-difluorophenyl)acetamide]: the CC50 at 96 h in data set [1] is above 200 µM. For the same compound, in the data set on ZIKV RNA, the EC50 was 6.76 ± 0.52 µM. In the data set with ZIKV E protein, the “inhibition of ZIKV E protein expression (immunofluorescence)” value was “completely inhibited”. Besides, in the data set on ZIKV, the “stage of the ZIKV replication cycle acted on” value is recorded as “mainly acts on the post-entry stage of the virus”. Further, in data set [2], the CC50 was above 10 µM.

One may read the EC50 as the concentration at which the effect is half-maximal.
